One assay deals with endogenous AMPARs. Description: all-optical cultured-neuron assay of AMPAR-dependent synaptic transmission. The note with it: DW=Rx50/HTL50. Type of assay: cell-based, rat. As for the experimental part: Cultured neuronal assays: Preparation of hippocampal cultures: Mixed glial and neuronal cultures were prepared from the hippocampus of postnatal day 0 to 1 Sprague-Dawley rat pups. Separate pools of dissociated cells were transfected via electroporation (LONZA, V4SP-3096) with plasmid constructs, and depending on assay directives, either plated individually or mixed with a different pool of electroporated cells after a 10 min recovery period. Cells were cultured on coverslips (Deckglaser) pre-treated with high molecular weight poly-D-lysine (Sigma, P7405; 0.05 mg/mL) in 24-well plates and maintained in NbActiv4 (BrainBits, Nb4-500) at 37 C, 5% CO2. Media was changed by half at DIV3 or 4 and then weekly thereafter; experiments were performed between DIV16 to DIV18.

In another assay the test system is endogenous GABAARs. Description: all-optical assay of GABAAR antagonism in primary neuronal culture. Type of assay: cell-based, rat.

The text below walks through data of US20250213700A1, “COMPOUNDS, COMPOSITIONS, AND METHODS FOR CELL-SPECIFIC PHARMACOLOGY” (Duke University, priority 2022, published 2025).

On to `COc1cc(CCCCl)ccc1CCOCCNC(=O)c1ccc(CNC(=O)CCOCCOCCOCCOCCOCCOCCOCCOCCOCCOCCOCCOCCOCCOCCOCCOCCOCCOCCOCCOCCOCCOCCOCCOCCOCCOCCOCCOCCOCCOCCOCCOCCOCCOCCOCCOCCn2cc(COCCOCCOCCOCCOCCOCCNC(=O)CCCn3c(=O)c(=O)[nH]c4cc([N+](=O)[O-])c(-n5ccnc5)cc43)nn2)cc1` [YM90K.1DART.2], for which, in the assay on endogenous AMPARs, the “widening of Dosing Window vs DART.1 reagent” value worked out at 10 fold. In addition, the “DW (t=15 m)” value with endogenous AMPARs (ddHTP vs +HTP cells, 15 min) is listed as 300.
As for `COc1cc(CCCCl)ccc1CCOCCNC(=O)c1ccc(CNC(=O)CCOCCOCCOCCOCCOCCOCCOCCOCCOCCOCCOCCOCCOCCOCCOCCOCCOCCOCCOCCOCCOCCOCCOCCOCCOCCOCCOCCOCCOCCOCCOCCOCCOCCOCCOCCOCCn2cc(COCCOCCOCCOCCOCCOCCOCCCCCCOc3ccc(-c4nn(CCCCC(=O)O)c(=N)cc4C)cc3)nn2)cc1` [gabazine.7DART.2], in the assay on endogenous GABAARs, the “increase in DW vs gabazine.1DART.2” value is about 6 fold, the “increase in HTL50 vs gabazine.1DART.2” value is about 3 fold and the “increase in Rx50 vs gabazine.1DART.2” value is given as about 20 fold. Further, the “DW (t=15 m)” value with endogenous GABAARs (ddHTP vs +HTP cells, 15 min, 15 uM GABA) is reported as 3,000.
